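Test compounds were applied to cells in 96-well plates for 48 hours at 5 doses. GI50 = concentration required for 50% inhibition of growth.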 Calls of active or inactive are those of the source. Rule as the data show it: active = GI50 up to about 1.1 µM and inactive = higher.
Tests used:
Experiment in all cases: NCI-60 cell line screen, 48 h
[1] = test system: 786-0
[2] = test system: A498
[3] = test system: A549
[4] = test system: ACHN
[5] = test system: BT-549
[6] = test system: CAKI-1
[7] = test system: CCRF-CEM
[8] = test system: COLO 205
[9] = test system: DU-145
[10] = test system: EKVX
[11] = test system: HCC 2998
[12] = test system: HCT-116
[13] = test system: HCT-15
[14] = test system: HOP-62
[15] = test system: HOP-92
[16] = test system: HT-29
[17] = test system: Hs-578T
[18] = test system: IGROV-1
[19] = test system: K562
[20] = test system: KM12
[21] = test system: LOX IMVI
[22] = test system: M14
[23] = test system: MCF7
[24] = test system: MDA-MB-231
[25] = test system: MDA-MB-435
[26] = test system: MDA-N
[27] = test system: MOLT-4
[28] = test system: NCI-H226
[29] = test system: NCI-H23
[30] = test system: NCI-H522
[31] = test system: NCI/ADR-RES
[32] = test system: OVCAR-3
[33] = test system: OVCAR-4
[34] = test system: OVCAR-5
[35] = test system: OVCAR-8
[36] = test system: PC-3
[37] = test system: RPMI-8226
[38] = test system: SF-268
[39] = test system: SF-295
[40] = test system: SF-539
[41] = test system: SK-MEL-28
[42] = test system: SK-MEL-2
[43] = test system: SK-MEL-5
[44] = test system: SK-OV-3
[45] = test system: SN12C
[46] = test system: SNB-19
[47] = test system: SR
[48] = test system: SW-620
[49] = test system: T47D
[50] = test system: TK-10
[51] = test system: U-251
[52] = test system: UACC-257
[53] = test system: UACC-62
[54] = test system: UO-31

O=C(/C=C/C=C/c1ccccc1)c1ccc2c(c1)CCCC2
GI50 [1]: 39 µM (inactive)
GI50 [2]: 38 µM (inactive)
GI50 [3]: 49.8 µM (inactive)
GI50 [4]: 70.8 µM (inactive)
GI50 [5]: 26 µM (inactive)
GI50 [6]: 74.3 µM (inactive)
GI50 [7]: 27.8 µM (inactive)
GI50 [8]: 40.4 µM (inactive)
GI50 [9]: 25.5 µM (inactive)
GI50 [10]: 36.5 µM (inactive)
GI50 [11]: 23 µM (inactive)
GI50 [12]: 31.6 µM (inactive)
GI50 [13]: 36 µM
GI50 [14]: 91.6 µM (inactive)
GI50 [15]: 30 µM (inactive)
GI50 [16]: 28.4 µM (inactive)
GI50 [17]: 4.84 µM (inactive)
GI50 [18]: 42.8 µM (inactive)
GI50 [19]: 30.9 µM (inactive)
GI50 [20]: 28.8 µM (inactive)
GI50 [21]: 30.1 µM (inactive)
GI50 [22]: 94.2 µM (inactive)
GI50 [23]: 32 µM (inactive)
GI50 [24]: 96.6 µM (inactive)
GI50 [25]: 18.9 µM (inactive)
GI50 [26]: 19.6 µM (inactive)
GI50 [27]: 25.9 µM (inactive)
GI50 [28]: 41.1 µM (inactive)
GI50 [29]: 35 µM (inactive)
GI50 [30]: 13.4 µM (inactive)
GI50 [31]: 25.8 µM (inactive)
GI50 [32]: 35.6 µM (inactive)
GI50 [33]: 43.7 µM (inactive)
GI50 [34]: > 100 µM (inactive)
GI50 [35]: 33.1 µM (inactive)
GI50 [36]: 36.5 µM (inactive)
GI50 [37]: 24.4 µM (inactive)
GI50 [38]: 16.2 µM (inactive)
GI50 [39]: 58.3 µM (inactive)
GI50 [40]: 54.5 µM (inactive)
GI50 [41]: > 100 µM (inactive)
GI50 [42]: 83.2 µM (inactive)
GI50 [43]: 37.2 µM (inactive)
GI50 [44]: 72.9 µM (inactive)
GI50 [45]: 32.5 µM (inactive)
GI50 [46]: 97.7 µM (inactive)
GI50 [47]: 21.2 µM (inactive)
GI50 [48]: 45.8 µM (inactive)
GI50 [49]: 16 µM (inactive)
GI50 [50]: 73.6 µM (inactive)
GI50 [51]: 35 µM (inactive)
GI50 [52]: 31.1 µM (inactive)
GI50 [53]: > 100 µM (inactive)
GI50 [54]: 61 µM (inactive)

From ChEMBL document CHEMBL1201862, “PubChem BioAssay data set” (2004)
